Assay results taken from article PMC11224403, “Des-acyl ghrelin reduces alcohol intake and alcohol-induced reward in rodents” (Translational Psychiatry, 2024).
No end group written: not given here.

Experiments:
CB1 receptor = assay: Aquoscreen receptor activity assay, CB1; type: cell-based, human; settings: 60 µM JWH-018, also at 7.5 µM; luminescence
male mice = assay: Locomotor activity test, alcohol-induced stimulation and DAG per se, mice; type: in vivo, NMRI mice
Description: (§1) Male and female Rcc Han Wistar rats (8–12 weeks old at arrival; Envigo, Horst, Netherlands) were used for the alcohol drinking and locomotor activity experiments as they drink alcohol to intoxicating levels. For in vivo microdialysis studies male Wistar rats (Charles River, Calco, Italy) were used as they display robust dopamine levels in NAc shell after alcohol injection. […] All rodents were allowed to habituate to the animal facility at least one week before they entered an experiment. […] The sample sizes of each experiment were based on previous experience in which statistical significance has been detected. The person who conducted the experiments, and analyzed the collected data was aware of the treatment allocation. Only preset exclusion criteria were used when analyzing the data obtained in attempts to exclude confounding factors in analyzing data. In the alcohol drinking experiments leaking bottles and low alcohol consumption (<3.0 g/kg for males; <3.5 g/kg for females) were preset exclusion criteria. The preset exclusion criterion in the ex vivo HPLC-EC, ELISA, and recombinant cell line experiments was contamination of the sample. Misplaced probes, technical difficulties, and damages to the surgery area were preset exclusion criteria for the in vivo microdialysis experiment. Intra-cage male aggression was the preset exclusion criterion for the locomotor activity and CPP experiments. To minimize tentative confounding factors, the order of treatments was stratified, with treatments being mixed for each animal cage and for each apparatus used as well as balancing the alcohol intake between future treatment groups.
Alcohol was in the behavioral and neurochemical tests injected (intraperitoneally, IP) 5 min before the test.
Locomotor activity tests were conducted in ventilated and dim-lit (4 lux) open field arenas (420 × 420 × 200 mm; Med Associates Inc; Georgia, Vermont, USA). Infra-red beams detected distance traveled, number of jumps, vertical counts, average velocity, stereotypic counts, number of inner zone entries, and time spent in the inner/outer zones of each animal.
In the first test, after 60 min of habituation, male (n = 24) or female (n = 24) rats were injected with vehicle or DAG (0.5, 1.0, or 2.0 mg/kg). 15 min later the activity was monitored for another 60 min. In the second locomotor activity experiment, male mice (n = 32) were allowed to habituate for 60 min. After that, they were injected with vehicle or DAG (0.25, 0.5, or 1.0 mg/kg). After 15 min the activity was monitored for another 60 min.
Therefore, male mice were (n = 32) injected with DAG (1.0 mg/kg) or vehicle 15 min before alcohol or vehicle. The activity registration started 5 min later and was recorded for an additional 60 min. Identical locomotor activity experiments were conducted in new male mice (n = 32), where a lower dose of DAG (0.5 mg/kg) was combined with alcohol.
(§2) The data from drinking experiments were analyzed by unpaired t-test or repeated two-way ANOVA. A two-tailed unpaired t-test analyzed the ELISA, ex vivo HPLC-EC, and cFOS data. In addition, the Pearson test correlated the serum levels and the mean values of alcohol intake in rats. A one-way ANOVA with Bonferroni post hoc tests and unpaired t-test analyzed the locomotor activity and CPP data, respectively. The in vivo microdialysis experiments were evaluated by a repeated two-way ANOVA followed by the Bonferroni post hoc test.

dopamine in NAc shell = assay: In vivo microdialysis, dopamine release in NAc shell; parameters: species or system Wistar rats; settings: male rats (methods), alcohol 2 g/kg IP, n = 8 per group
Description: as §1, with “groups. […]” for “groups.”
as §2, with “In addition, the Pearson test correlated the serum levels and the mean values of alcohol intake in rats.” left out

[1] = test system: human transporter of dopamine (DAT); assay: Transporter inhibition in recombinant cell line (neurotransmitter transporter uptake assay), DAT; type: cell-based; settings: cocaine at such concentration (12.5 µM and 6.25 µM); CHO-K1 cells, 3 h, fluorescence
NET = assay: Transporter inhibition in recombinant cell line, NET; type: cell-based, human; settings: cocaine at 12.5 µM and 6.25 µM (top concentration 50 µM); 3 h, fluorescence
SERT = assay: Transporter inhibition in recombinant cell line, SERT; type: cell-based, human; settings: cocaine at 12.5 µM and 6.25 µM (top concentration 50 µM); 3 h, fluorescence
[2] = test system: high alcohol-consuming mice; settings: central infusion, ref [47]; cited from earlier work
[3] = test system: alcohol-related responses; settings: preclinical and clinical studies, ref [6–18]; cited from earlier work
Description: Alcohol use disorder (AUD) is a major public health problem with high morbidity and mortality. Its development is complex and the dopaminergic neurons from the ventral tegmental area (VTA) to the nucleus accumbens (NAc) have gained extra interest as they mediate alcohol-induced reward (for review see [2, 3]). Various biological systems participate in the ability of alcohol to interact with these dopamine neurons, and gut-brain peptides have been implied as important modulators (for review see [4]). One of these peptides is ghrelin (i.e., acyl-ghrelin, the acylated form of ghrelin [ ...

[4] = test system: memory function via hippocampal mechanisms; settings: ref [50], [51]; cited from earlier work

CCCCCn1cc(C(=O)c2cccc3ccccc23)c2ccccc21 [JWH-018]
effect on target receptor CB1 (CB1 receptor): full target receptor inhibition

CCO [alcohol]
locomotor stimulation by alcohol (male mice; alcohol 1.75 g/kg IP (experiment with DAG 0.5 mg/kg)): hyperlocomotion after alcohol (P = 0.0225)
locomotor stimulation by alcohol (male mice; alcohol 1.75 g/kg IP vs vehicle, n = 8 per group (experiment with DAG 1 mg/kg)): caused a locomotor simulation (P = 0.0136)
dopamine in NAc shell, alcohol vs vehicle (dopamine in NAc shell): elevated dopamine in NAc shell (80 min P < 0.001, 160 min P = 0.0011, 180 min P = 0.0037, 200 min P < 0.0001)

COC(=O)[C@H]1[C@@H](OC(=O)c2ccccc2)C[C@@H]2CC[C@H]1N2C [cocaine]
inhibition of DAT, share of full transporter inhibition [1]: 70–80%
inhibition of NET (NET): full NET and SERT inhibition at 12.5 µM and 6.25 µM
inhibition of SERT (SERT): full NET and SERT inhibition at 12.5 µM and 6.25 µM

LEAP2: recently discovered inverse GHSR agonist (MTPFWRGVSLRPIGASCRDDSECITRLCRKRRCSLSVAQE; ends and bridges not checked; cysteine pairing not given here; UniProt Q969E1 38-77, looked up)
alcohol intake [2]: reduces alcohol intake in high alcohol-consuming mice after its central infusion

ghrelin (GSSFLSPEHQRVQQRKESKKPPAKLQPR; ends and bridges not checked; also: octanoylated, position not given here; UniProt Q9UBU3 24-51, looked up) [orexigenic peptide, the acylated form of ghrelin]
alcohol-related responses [3]: enhances
memory function [4]: enhance memory function via hippocampal mechanisms
